Among the data in patent publication US10758534B2 (Vertex Pharmaceuticals Incorporated, priority 2014, dated 2020) are EC30 values, retold here.

Molecules are shown by their SMILES.

T1 sequence (P13569 with tags, fused parts or gaps DEL508-508): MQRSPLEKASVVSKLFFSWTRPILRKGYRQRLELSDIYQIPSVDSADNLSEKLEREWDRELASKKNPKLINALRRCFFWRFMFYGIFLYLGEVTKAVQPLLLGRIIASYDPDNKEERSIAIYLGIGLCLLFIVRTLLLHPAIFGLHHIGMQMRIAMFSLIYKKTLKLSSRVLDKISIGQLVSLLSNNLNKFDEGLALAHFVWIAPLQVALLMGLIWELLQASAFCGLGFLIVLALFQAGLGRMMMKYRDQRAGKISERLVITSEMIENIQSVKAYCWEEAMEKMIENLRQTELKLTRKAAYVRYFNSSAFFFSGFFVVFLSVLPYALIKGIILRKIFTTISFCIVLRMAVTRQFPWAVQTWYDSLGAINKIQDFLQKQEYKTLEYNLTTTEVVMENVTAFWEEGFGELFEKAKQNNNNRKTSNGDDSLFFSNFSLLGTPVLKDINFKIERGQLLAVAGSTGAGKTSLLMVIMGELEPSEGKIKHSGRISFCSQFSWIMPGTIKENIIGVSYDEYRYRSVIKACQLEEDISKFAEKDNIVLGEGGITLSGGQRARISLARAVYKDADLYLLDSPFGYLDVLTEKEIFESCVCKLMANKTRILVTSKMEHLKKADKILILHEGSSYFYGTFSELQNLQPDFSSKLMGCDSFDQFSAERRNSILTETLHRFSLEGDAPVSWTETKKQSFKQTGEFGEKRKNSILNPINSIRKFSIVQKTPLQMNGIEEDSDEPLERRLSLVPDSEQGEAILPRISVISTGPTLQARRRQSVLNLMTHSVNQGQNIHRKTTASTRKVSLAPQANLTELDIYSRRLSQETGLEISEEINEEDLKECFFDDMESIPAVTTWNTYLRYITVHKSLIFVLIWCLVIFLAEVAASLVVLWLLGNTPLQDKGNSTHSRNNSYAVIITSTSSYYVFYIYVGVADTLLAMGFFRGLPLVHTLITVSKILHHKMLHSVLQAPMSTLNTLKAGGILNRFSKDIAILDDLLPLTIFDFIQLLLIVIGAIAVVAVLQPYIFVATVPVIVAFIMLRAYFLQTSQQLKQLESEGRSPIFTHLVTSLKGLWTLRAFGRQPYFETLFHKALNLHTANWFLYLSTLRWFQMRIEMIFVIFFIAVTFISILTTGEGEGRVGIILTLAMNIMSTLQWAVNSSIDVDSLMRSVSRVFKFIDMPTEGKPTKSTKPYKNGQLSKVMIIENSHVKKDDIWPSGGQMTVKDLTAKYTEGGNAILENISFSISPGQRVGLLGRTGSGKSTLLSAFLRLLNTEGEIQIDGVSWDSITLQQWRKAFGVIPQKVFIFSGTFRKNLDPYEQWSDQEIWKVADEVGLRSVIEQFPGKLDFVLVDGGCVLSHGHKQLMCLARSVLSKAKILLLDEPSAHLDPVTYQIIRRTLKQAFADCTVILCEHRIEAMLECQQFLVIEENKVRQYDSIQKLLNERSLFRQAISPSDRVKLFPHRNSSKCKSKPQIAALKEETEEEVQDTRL

One experiment addresses T1, F508del (Homo sapiens, UniProt P13569, DEL508-508).
T1 construct: expressed in transfected cells
The experiment is described as follows: Protocol 2: FRET membrane potential optical assay (VIPR), identification of correction compounds. As to conditions: F508del CFTR modulator activity; compounds of Table 1; read-out: EC30. The class given is cell-based. In short, it runs like this:
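Mouse NIH3T3 cells, stable F508del; cpd 16 hrs, 37° C., serum-free; pos ctrl 27° C. 16 hrs. Rinse in Krebs Ringers, dye load, then add 10 μM forskolin + 20 μM genistein with Cl^−-free (gluconate) medium; depolarization by FRET voltage dyes.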
`CCOCCOc1ccc(C(=O)NS(=O)(=O)c2cccnc2N)c(N2C[C@@H](C)CC2(C)C)n1` [Compound 2699]: the EC30 is less than 3 µM.

With `CC[C@H](C)COc1ccn(-c2ccc(C(=O)NS(=O)(=O)c3cccnc3N)c(N3C[C@@H](C)CC3(C)C)n2)n1` [Compound 2458, N-[(2-amino-3-pyridyl)sulfonyl]-6-[3-[(2S)-2-methylbutoxy]pyrazol-1-yl]-2-[(4S)-2,2,4-trimethylpyrrolidin-1-yl]pyridine-3-carboxamide], the EC30 is less than 3 µM.

`CC1CN(c2ncccc2C(=O)NS(=O)(=O)c2cccc(NCc3cc(F)cc(F)c3)n2)C(C)(C)C1` (stereo not drawn) [Compound 2421, N—[[6-[(3,5-difluorophenyl)methylamino]-2-pyridyl]sulfonyl]-2-(2,2,4-trimethylpyrrolidin-1-yl)pyridine-3-carboxamide]: the EC30 is less than 3 µM.

For the molecule `CCOc1ccc(F)c(-c2ccc(C(=O)NS(=O)(=O)c3ccc[nH]c3=O)c(N3C[C@@H](C)CC3(C)C)n2)c1` [Compound 2138, 6-(5-ethoxy-2-fluoro-phenyl)-N-[(2-oxo-1H-pyridin-3-yl)sulfonyl]-2-[(4S)-2,2,4-trimethylpyrrolidin-1-yl]pyridine-3-carboxamide], the EC30 is less than 3 µM.

`CC1CN(c2ncccc2C(=O)NS(=O)(=O)c2cccc(OC3(C)CCCCCC3)n2)C(C)(C)C1` (stereo not drawn) [Compound 2057, N—[[6-(1-methylcycloheptoxy)-2-pyridyl]sulfonyl]-2-(2,2,4-trimethylpyrrolidin-1-yl)pyridine-3-carboxamide]: the EC30 was less than 3 µM.

Take `CC(C)COc1cc(F)cc(-c2ccc(C(=O)NS(=O)(=O)C3CCNC3)c(N3C[C@@H](C)CC3(C)C)n2)c1` (stereo partly drawn) [Compound 2042, 6-(3-fluoro-5-isobutoxy-phenyl)-N-pyrrolidin-3-ylsulfonyl-2-[(4S)-2,2,4-trimethylpyrrolidin-1-yl]pyridine-3-carboxamide]: the 30% effect concentration (EC30) is less than 3 µM.

Regarding `CC(C)c1ccccc1-c1ccc(C(=O)NS(=O)(=O)c2ccc[nH]c2=O)c(N2C[C@@H](C)CC2(C)C)n1` [Compound 2635, 6-(2-isopropylphenyl)-N-[(2-oxo-1H-pyridin-3-yl)sulfonyl]-2-[(4S)-2,2,4-trimethylpyrrolidin-1-yl]pyridine-3-carboxamide], the EC30 is less than 3 µM.

For the molecule `C[C@@H]1CN(c2nc(-c3cc(F)ccc3F)ccc2C(=O)NS(=O)(=O)c2cccnc2N)C(C)(C)C1` [Compound 2105, N-[(2-amino-3-pyridyl)sulfonyl]-6-(2,5-difluorophenyl)-2-[(4S)-2,2,4-trimethylpyrrolidin-1-yl]pyridine-3-carboxamide], the EC30 was less than 3 µM.

`CC1CN(c2ncccc2C(=O)NS(=O)(=O)c2cccc(OCc3cccc(C#N)c3)n2)C(C)(C)C1` (stereo not drawn) [Compound 2299, N—[[6-[(3-cyanophenyl)methoxy]-2-pyridyl]sulfonyl]-2-(2,2,4-trimethylpyrrolidin-1-yl)pyridine-3-carboxamide]: the EC30 was less than 3 µM.

For `C[C@@H]1CN(c2nc(-c3ccccc3)ccc2C(=O)NS(=O)(=O)c2ccccc2)C(C)(C)C1` [Compound 2092, N-(benzenesulfonyl)-6-phenyl-2-[(4S)-2,2,4-trimethylpyrrolidin-1-yl]pyridine-3-carboxamide], the EC30 was less than 3 µM.

With `C[C@@H]1CN(c2nc(C3=CCCN(C(=O)CC4CCCCC4)C3)ccc2C(=O)NS(=O)(=O)c2cccc(N)n2)C(C)(C)C1` [Compound 2633, N-[(6-amino-2-pyridyl)sulfonyl]-6-[1-(2-cyclohexylacetyl)-3,6-dihydro-2H-pyridin-5-yl]-2-[(4S)-2,2,4-trimethylpyrrolidin-1-yl]pyridine-3-carboxamide], the EC30 was in the range of 3 to 10 µM.

Turning to `Nc1cccc(S(=O)(=O)NC(=O)c2cccnc2NC2CCCCC2C2CCCCC2)n1` (stereo not drawn) [Compound 2599, N-[(6-amino-2-pyridyl)sulfonyl]-2-[(2-cyclohexylcyclohexyl)amino]pyridine-3-carboxamide], the EC30 was 3 to 10 µM.

Regarding `CC1CN(c2ncc(-c3ccc(C(C)(C)C)cc3)cc2C(=O)NS(=O)(=O)c2cccc(N)n2)C(C)(C)C1` (stereo not drawn) [Compound 2463, N-[(6-amino-2-pyridyl)sulfonyl]-5-(4-tert-butylpenyl)-2-(2,2,4-trimethylpyrrolidin-1-yl)pyridine-3-carboxamide], the EC30 is less than 3 µM.

Still in this experiment, the particulars now being: Table 3; compounds of Table 1 as modulators of CFTR activity; protocol not stated.
As for `CC(C)Cn1cc(-c2ccc(C(=O)NS(=O)(=O)c3cccc(N)n3)c(N3CC(C)CC3(C)C)n2)cn1` (stereo not drawn) [Compound 631, N-[(6-amino-2-pyridyl)sulfonyl]-6-(1-isobutylpyrazol-4-yl)-2-(2,2,4-trimethylpyrrolidin-1-yl)pyridine-3-carboxamide], the EC30 entry was “+++ (“+++” means <3 uM)”.

Consider `Cc1cc(C)c(Oc2nc3ccccc3cc2C(=O)NS(=O)(=O)c2ccccc2)c(C)c1` [Compound 215, N-(benzenesulfonyl)-2-(2,4,6-trimethylphenoxy)quinoline-3-carboxamide], for which the EC30 result is reported as “+++ (“+++” means <3 uM)”.

With `Cc1cc(C)c(C(C)n2nc(C(C)(C)C)cc2C(=O)NS(=O)(=O)c2ccccc2)c(C)c1` (stereo not drawn) [Compound 201, N-(benzenesulfonyl)-5-tert-butyl-2-[1-(2,4,6-trimethylphenyl)ethyl]pyrazole-3-carboxamide], the EC30 entry is on record as “+++ (“+++” means <3 uM)”.

On to `Cc1cc(C)c(CN2C[C@@H](c3ccccc3)C[C@H]2C(=O)NS(=O)(=O)c2cccc(N)n2)c(C)c1` [Compound 236, (2S,4R)—N-[(6-Amino-2-pyridyl)sulfonyl]-4-phenyl-1-[(2,4,6-trimethylphenyl)methyl]pyrrolidine-2-carboxamide], for which the EC30 entry is “++ (“++” means between 3 uM and 10 uM)”.

With `Cc1ccc(-c2nc3c(cc2C(=O)NS(=O)(=O)c2ccc(N)nc2)CCCC3(C)C)cc1` [Compound 635, N-[(6-amino-3-pyridyl)sulfonyl]-8,8-dimethyl-2-(p-tolyl)-6,7-dihydro-5H-quinoline-3-carboxamide], the EC30 result is listed as “+ (“+” means greater than 10 uM)”.

Consider `Cc1cccc(C)c1Cn1nc(C(C)(C)C)cc1C(=O)NS(=O)(=O)c1ccc(N)cc1` [Compound 81, N-(4-aminophenyl)sulfonyl-5-tert-butyl-2-[(2,6-dimethylphenyl)methyl]pyrazole-3-carboxamide], for which the EC30 result was “+++ (“+++” means <3 uM)”.

Regarding `COc1cccc(S(=O)(=O)NC(=O)C2c3ccccc3CN2Cc2c(C)cc(C)cc2C)n1` (stereo not drawn) [Compound 174, N-[(6-methoxy-2-pyridyl)sulfonyl]-2-[(2,4,6-trimethylphenyl)methyl]isoindoline-1-carboxamide], the EC30 result was “++ (“++” means between 3 uM and 10 uM)”.

Regarding `Cc1cc(C)c(CN2Cc3ccccc3C2C(=O)NS(=O)(=O)c2cccc(O)c2)c(C)c1` (stereo not drawn) [Compound 254, N-(3-hydroxyphenyl)sulfonyl-2-[(2,4,6-trimethylphenyl)methyl]isoindoline-1-carboxamide], the EC30 result was “++ (“++” means between 3 uM and 10 uM)”.

For the molecule `CC(C)COc1cc(F)cc(-c2ccc(C(=O)NS(=O)(=O)c3cccc(N)n3)c(N3C(C)CCC3(C)C)n2)c1` (stereo not drawn) [Compound 496, N-[(6-amino-2-pyridyl)sulfonyl]-6-(3-fluoro-5-isobutoxy-phenyl)-2-(2,2,5-trimethylpyrrolidin-1-yl)pyridine-3-carboxamide], the EC30 result is recorded as “+++ (“+++” means <3 uM)”.

As to `COc1cccc(S(=O)(=O)NC(=O)c2ccc(-c3cc(F)cc(OCC(C)C)c3)nc2N2CC(C)CC2(C)C)n1` (stereo not drawn) [Compound 795], the EC30 entry is given as “+++ (“+++” means <3 uM)”.

As for `CC(C)COc1cc(F)cc(-c2ccc(C(=O)NS(=O)(=O)c3cccc(N)n3)c(N3CCCC3Cc3ccccc3)n2)c1` (stereo not drawn) [Compound 772, N-[(6-amino-2-pyridyl)sulfonyl]-2-(2-benzylpyrrolidin-1-yl)-6-(3-fluoro-5-isobutoxy-phenyl)pyridine-3-carboxamide], the EC30 result is “+++ (“+++” means <3 uM)”.

As to `COc1ncccc1S(=O)(=O)NC(=O)c1cc2ccccc2n1Cc1c(C)cc(C)cc1C` [Compound 18, N-[(2-methoxy-3-pyridyl)sulfonyl]-1-[(2,4,6-trimethylphenyl)methyl]indole-2-carboxamide], the EC30 result is “+++ (“+++” means <3 uM)”.

In the case of `Cc1ccc(Oc2nc(-c3cnn(CC(C)C)c3)ccc2C(=O)NS(=O)(=O)c2cccc(N)n2)c(C)c1` [Compound 381, N-[(6-amino-2-pyridyl)sulfonyl]-2-(2,4-dimethylphenoxy)-6-(1-isobutylpyrazol-4-yl)pyridine-3-carboxamide], the EC30 result is “++ (“++” means between 3 uM and 10 uM)”.

With `CC(c1ccccc1)c1nc(C(C)(C)C)ccc1C(=O)NS(=O)(=O)c1cccc(N)c1` (stereo not drawn) [Compound 271, N-(3-aminophenyl)sulfonyl-6-tert-butyl-2-(1-phenylethyl)pyridine-3-carboxamide], the EC30 entry was “+++ (“+++” means <3 uM)”.

Turning to `CC(Oc1nc(C(C)(C)C)ccc1C(=O)NS(=O)(=O)c1cccc(N)c1)c1ccccc1` (stereo not drawn) [Compound 219, N-(3-aminophenyl)sulfonyl-6-tert-butyl-2-(1-phenylethoxy)pyridine-3-carboxamide], the EC30 result is “+++ (“+++” means <3 uM)”.

On to `COc1cc(F)ccc1-c1ccc(C(=O)NS(=O)(=O)c2cc[nH]n2)c(Oc2c(C)cc(C)cc2C)n1` [Compound 405, 6-(4-fluoro-2-methoxy-phenyl)-N-(1H-pyrazol-3-ylsulfonyl)-2-(2,4,6-trimethylphenoxy)pyridine-3-carboxamide], for which the EC30 result was “+++ (“+++” means <3 uM)”.

Turning to `Cc1cc(C)c(Oc2nc(C)ccc2C(=O)NS(=O)(=O)c2cccc(NC(C)C)n2)c(C)c1` [Compound 482, N-[[6-(isopropylamino)-2-pyridyl]sulfonyl]-6-methyl-2-(2,4,6-trimethylphenoxy)pyridine-3-carboxamide], the EC30 entry is on record as “+++ (“+++” means <3 uM)”.

The term EC30 denotes the concentration needed for an effect of 30%.
